# Measured values from article PMC9609317, “Evaluation of Metabolism of a Defined Pesticide Mixture through Multiple In Vitro Liver Models” (Toxics, 2022).
# How the values were obtained:
# [1] = tested on: induced pluripotent stem cell-derived hepatocytes (iHep) suspension; experiment: iHep suspension, nontargeted IMS-MS analysis (clearance, metabolite formation, mass balance); assay type: in vitro ADME, human; details: for CLHep average, Nontargeted Analyses (IMS-MS): 1µM mixture; for Level of metabolism through nontargeted methods: % remaining by IMS-MS
# Protocol: (§1) Suspension assays using iHep were performed as previously detailed with slight modification. In brief, pre-differentiated iHep were suspended in iHep maintenance media and adjusted to the cell concentration of 1 × 10^6 cells/mL. A portion of the cell working stock was heated at 95 °C for five minutes to serve as negative control. Five hundred microliters of the chemical stock (20 chemicals, 2 or 10 µM each) were spiked in 500 µL of the cell working stock or heat-inactivated cell control to a final cell density of 5 × 10^5 cells/mL. Fifty microliters were removed subsequently at 0, 60, 120, and 240 min to individual 1.5 mL Eppendorf tubes for further sample extraction detailed below. Each experimental condition was replicated three times.
# All nontargeted analyses were performed using a 6560 IMS-QTOF MS (Agilent Technologies) as detailed previously. All individual standards for pesticide parent compounds (n = 20) and known metabolites (n = 10) were directly injected in triplicate into the electrospray ionization (ESI) source (positive and negative mode) and atmospheric pressure photo-ionization (APPI, negative mode only) to obtain collision cross section (CCS) and mass-to-charge ratio (m/z) values. Blanks were injected between standards to reduce the likelihood of carryover. For sample analyses, ESI was chosen as the optimal source to detect analytes in either positive or negative mode. During IMS-MS analyses, ions were passed through the inlet glass capillary, focused by a high-pressure ion funnel, and accumulated in an ion funnel trap. Next, ions were pulsed into the 78.24 cm-long IMS drift tube filled with nitrogen gas at a pressure of approximately 3.95 torr (527 Pa). Ions exiting the drift tube were refocused by a rear ion funnel prior to quadrupole time-of-flight (QTOF) MS detection. Detailed instrumental settings in ESI mode can be found in Table S1. Prior to instrumental analysis, the IMS-MS was tuned and a mass calibration was performed using Agilent Tune Mix from the manufacturer (Cat No.: G2421-60001, Agilent Technologies).
# In vitro hepatocyte clearance (Clin vitro) of each chemical was estimated by substrate depletion approach assuming first-order kinetics for compound elimination: Clin vitro = kV/N, where k = first-order elimination rate constant, V = incubation volume, and N = number of cells in the incubation. Clin vitro was further scaled up to the intrinsic hepatocyte clearance (Clint) according to the equation [38]:Clint = Clin vitro × HPGL × Vl(1) where HPGL = hepatocytes per gram liver (137 × 10^6 cells/g) and Vl = volume of the whole liver (1820 g).
# [2] = tested on: induced pluripotent stem cell-derived hepatocytes (iHep) suspension; experiment: In vitro hepatocyte clearance in iHep suspension, targeted LC-MS/MS and GC-MS/MS; assay type: in vitro ADME, human; details: 1 µM equimolar mixture, approximate values
# Protocol: as §1
# Sample extraction procedures and chromatographic conditions were previously reported in [34]. In brief, each sample (50 µL) was spiked with 10 µL of 10 µM internal standards, mixed with 100 µL of chilled acetonitrile, and then centrifuged at 10,000× g for 5 min. The supernatant was dried under vacuum using SpeedVac (Savant SPD1010, Beckman Coulter, Brea, CA, USA) and reconstituted with 50 µL of aqueous mobile phase prior to analyses. LC-MS/MS analysis was performed using 1290 Infinity II LC and 6470 triple quadrupole mass spectrometer (both instruments from Agilent Technologies, Santa Clara, CA, USA). Sample extract (10 µL) was chromatographed on a ZORBAX SSHD Eclipse Plus C18 column (3.0 × 50 mm, 1.8 µm, Cat No.: 959757-302; Agilent Technologies) with a guard column (2.1 × 5 mm, 1.8 µm, Cat No.: 821725-901; Agilent Technologies), and ionized using electrospray ionization. Analytical response was acquired in both positive and negative modes.
# For positive ion compounds, mobile phases consisted of 0.1% formic acid in water (A) and 0.1% formic acid in methanol (B) using the following gradient: 2% B held for 1 min, B increased to 80% by 3 min, B increased to 95% by 4 min, B decreased to 2% by 5 min and held for 3 min for a total run time of 8 min per sample at a flow rate of 0.4 mL/min. For negative ion compounds, the LC gradient and flow rate were the same as in positive mode, except that mobile phase A was water and mobile phase B was acetonitrile.
# Fifty microliters of media sample were spiked with 10 µL of 10 µM internal standards, mixed with 50 µL of methanol and 200 µL of pentane: diethyl ether (1:1 v/v), vortexed briefly, and then centrifuged at 600× g for 5 min. Organic layer supernatants were transferred to a 2 mL amber vial and concentrated under nitrogen prior to GC analysis. Detection of analytes was achieved using a 7890B GC and 7010B triple quadrupole mass spectrometer (both from Agilent Technologies). Samples were injected (1 µL) in splitless mode. Analytes were separated with a VF-5ms GC column (60 m × 250 µm × 0.25 µm, Cat No.: CP8960; Agilent Technologies) and ionized using electron ionization. The column head pressure was set at 21.5 psi (148,237 Pa) with a constant flow rate at 1.2 mL/min using helium gas. Initial column temperature was held at 70 °C for 5 min, increased to 150 °C at 50 °C/min, ramped to 280 °C at 4 °C/min, and then held […]. The total run time was 42.1 min. The injector temperature was set at 250 °C. The ion source and auxiliary transfer line temperatures were 300 °C. Electron multiplier voltage was set at 1884 V. Ultra-high purity nitrogen gas was used as the collision gas for all MS/MS experiments, and collision gas pressure was set at 16.8 psi (115,832 Pa).
# In vitro hepatocyte clearance (Clin vitro) of each chemical was estimated by substrate depletion approach assuming first-order kinetics for compound elimination: Clin vitro = kV/N, where k = first-order elimination rate constant, V = incubation volume, and N = number of cells in the incubation. […]
compound,measurement,setting,value
CCOP(=S)(OCC)SCCSCC [Disulfoton],"CLHep average, Nontargeted Analyses (IMS-MS)",[1],5.305 µL/min/106 hepatocytes
same,Level of metabolism through nontargeted methods,[1]; 1 µM mixture,high levels of metabolism
same,Clearance rate in suspension cultures,[2],5 to 14 µL/min/10^6 hepatocytes
"O=[N+]([O-])c1ccc(O)c([N+](=O)[O-])c1 [2,4-Dinitrophenol]","CLHep average, Nontargeted Analyses (IMS-MS)",[1],8.886 µL/min/106 hepatocytes
same,Level of metabolism through nontargeted methods,[1]; 1 µM mixture,high levels of metabolism
same,Clearance rate in suspension cultures,[2],5 to 14 µL/min/10^6 hepatocytes
CCOP(O)(=S)OCC [diethylthiophosphate],Metabolite formation (IMS-MS abundance),"[1]; 1 µM mixture, relative abundance among the five detected metabolites",formed at the highest amount
CCOP(=S)(OCC)Oc1nc(Cl)c(Cl)cc1Cl [Chlorpyrifos],"CLHep average, Nontargeted Analyses (IMS-MS)",[1],7.82 µL/min/106 hepatocytes
same,Level of metabolism through nontargeted methods,[1]; 1 µM mixture,high levels of metabolism
same,Clearance rate in suspension cultures,[2],5 to 14 µL/min/10^6 hepatocytes
COP(=S)(OC)SCn1nnc2ccccc2c1=O [Azinphos-methyl],"CLHep average, Nontargeted Analyses (IMS-MS)",[1],8.987 µL/min/106 hepatocytes
same,Level of metabolism through nontargeted methods,[1]; 1 µM mixture,high levels of metabolism
same,Clearance rate in suspension cultures,[2],5 to 14 µL/min/10^6 hepatocytes
CCOP(=S)(OCC)Oc1cc(C)nc(C(C)C)n1 [Diazinon],"CLHep average, Nontargeted Analyses (IMS-MS)",[1],2.285 µL/min/106 hepatocytes
same,Clearance rate in suspension cultures,[2],5 to 14 µL/min/10^6 hepatocytes
CCOP(=S)(OCC)SCSP(=S)(OCC)OCC [Ethion],"CLHep average, Nontargeted Analyses (IMS-MS)",[1],5.216 µL/min/106 hepatocytes
same,Level of metabolism through nontargeted methods,[1]; 1 µM mixture,high levels of metabolism
same,Clearance rate in suspension cultures,[2],5 to 14 µL/min/10^6 hepatocytes
